{"source": "patent US20250263457A1", "about": "“Pharmaceutical Composition for Preventing and Treating Liver Disease Comprising Novel Peptide” (Pusan National University Industry-University Cooperation …, priority 2024, published 2025)", "key": {"[1]": {"system": "alcohol-related liver disease mouse model", "test": "Triglyceride accumulation in liver tissue of alcohol-related liver disease mouse model", "assay_type": "in vivo, C57BL/6 male mice", "settings": "3.3 μg/kg i.p. every other day for three weeks", "text": "(§1) To prepare alcohol-related liver disease mice, 8-week-old C57BL/6 male mice were fed with a Lieber DeCarli liquid diet (Dyets, 710260) containing 5% EtOH for 9 weeks, and then injected intraperitoneally with a vehicle (PBS) every other day along with feeding liquid diet for additional 3 weeks. As a control group for the EtOH diet, mice fed with a pair Lieber DeCarli liquid diet (Dyets, 710027) having the same total calories as the EtOH diet were used (FIG. 4A).\nTriglycerides in the liver tissue obtained by the method of Example 5.2 were measured using the following method.\nIn addition, the accumulation of triglycerides in the liver tissue was confirmed using Oil red O staining.\nSpecifically, the liver tissue extracted from the mice was embedded in OCT and frozen-stored at −80° C. The liver tissue embedded in OCT was cut into 6 μm-thick sections to produce tissue section slides and then fixed by treating 4% paraformaldehyde. The tissue section slides were washed with distilled water and treated with 100% propylene glycol ([…], Sigma-Aldrich), and triglycerides were stained with Oil Red O (Sigma-Aldrich). After staining, the section slides were washed with 60% PEG, and the nuclei were counterstained with hematoxylin. The liver tissue section slides produced as described above were observed under a microscope to confirm the accumulation of triglycerides in the liver tissue. […]"}, "CD44 [2]": {"system": "CD44", "test": "Immunofluorescence of CD44ICD and α-SMA in human pHSCs", "assay_type": "cell-based", "settings": "40 ng/ml, immunofluorescence (FIG. 3B)", "protocol": "The cleavage of CD44 and the expression of the activation marker of pHSCs by peptide YJ treatment were confirmed through immunofluorescence. At this time, human pHSCs treated with PBS were used as a control group.\nSpecifically, human pHSCs (5×10^4 cells/ml) were seeded on coverslips and then cultured overnight. The cells were treated with peptide YJ at a concentration of 40 ng/ml and further cultured for 6, 12, and 24 hours, respectively. The cells were fixed and permeabilized by treating each cell with 4% paraformaldehyde and 0.01% Triton X-100. To inhibit non-specific binding of antibodies, blocking (Dako, X9090) was performed, and then the primary antibodies were treated and reacted overnight at 4° C. At this time, the primary antibodies used were anti-CD44ICD antibody (Cosmo Bio, KAL-KO601) and α-SMA (Sigma-Aldrich, A5228). Thereafter, the cells were washed with TBS, treated with a secondary antibody, and reacted at room temperature for 30 minutes. The secondary antibody used were Alexa Fluor 488-conjugated chicken anti-mouse IgG antibody (Invitrogen, A21200) or Alexa Fluor 568-conjugated goat anti-rabbit IgG antibody (Invitrogen, A10042). The cells were washed with TBS, and then treated with 4′,6-diamidino-2-phenylinole (DAPI, VECTASHIELD, H-1200-10) to perform nuclear staining. Finally, the coverslip was fixed on a slide glass using a mounting solution and then observed with a confocal microscope DMi8-S (Leica Microsystems) or CLSM21 (Carl Zeiss Inc.)."}, "[3]": {"system": "alcohol-related liver disease mouse model", "test": "Liver size/weight and serum AST/ALT in alcohol-related liver disease mouse model", "assay_type": "in vivo, C57BL/6 male mice", "protocol": "as §1\nSpecifically, 20 μl of mouse serum was mixed with 100 μl of a GOT buffer or GPT buffer, and then reacted at 37° C. Thereafter, the mixture was added with a 0.0198% 2,4-dinitrophenylhydrazine colorimetric solution (100 μl), and then further reacted at room temperature for 20 minutes. Thereafter, the mixture was added with 0.4 N NaOH (1 ml) to terminate the reaction, and absorbance (505 nm) was measured. The absorbance was expressed in international units per liter (IU/L).\nThe alcohol-related liver disease mouse model established by the method of Example 5.1 was administered vehicle (PBS) or peptide YJ (3.3 μg/kg) intraperitoneally every other day for three weeks, and then blood was collected and liver tissue was extracted to confirm the liver disease treatment effect of peptide YJ.\nThe weight and degree of tissue damage of the liver tissue extracted from the experimental mice of Example 5.3 were measured in the same manner as in Example 5.2.1."}, "human pHSCs": {"system": "human pHSCs", "test": "Cell survival of human pHSCs by MTS assay", "assay_type": "cell-based", "settings": "0, 20, 40, or 100 ng/ml; 24 and 48 hours; vs PBS control (FIG. 2B)", "protocol": "100 μl of human pHSCs (5×10^4 cells/ml) were seeded into 96 wells and cultured overnight. The cells were treated with peptide YJ at a concentration of 0, 20, 40, or 100 ng/ml and then further cultured. After 24 and 48 hours, cell survival for each cell was confirmed through MTS assay (Cell titer proliferation assay, G3580, Promega) (FIG. 2A). At this time, human pHSCs treated with PBS were used as a control group (vehicle)."}, "CD44 [4]": {"system": "CD44", "test": "Western blot of CD44ICD in nuclear proteins of human pHSCs (CD44 cleavage)", "assay_type": "cell-based", "settings": "40 ng/ml, 24 hours, vs control (FIG. 3A)", "protocol": "Specifically, pHSCs were treated with peptide YJ (40 ng/ml) for 0, 6, 12, or 24 hours, and then nuclear proteins were isolated. Western blotting was performed on the isolated nuclear proteins to confirm the expression of CD44 and CD44ICD. The nuclear proteins were obtained by a nuclear protein fractionation method.\nAt this time, the primary antibodies were used with anti-CD44 antibody (Abcam, ab157107), anti-CD44ICD antibody (Cosmo Bio, KAL-KO601), and anti-LAMIN B1 antibody (Abcam, ab16048), and the secondary antibody was used with Goat anti-Rabbit IgG antibody (HRP conjugate) (Enzo, ADI-SAB-300-J). In addition, human pHSCs treated with PBS were used as a control group. The CD44 and CD44ICD expression results were normalized to the expression level of LAMIN B1, which was an internal control group, and expressed as mean±SEM values obtained from the same experiment repeated three times."}, "[5]": {"settings": "3.3 μg/kg i.p. every other day for three weeks, EtOH diet group, vs vehicle (FIG. 6C)"}}, "data": [{"substance": "peptide YJ: TSG-6 fragment: core domain RSGKYKLTYAEAKA plus C-terminal extension VCEFEGGHLATYKQLEAARKIGFHVCAAGWMAK (SEQ ID NO: 9); TSG-6 mimetic (RSGKYKLTYAEAKAVCEFEGGHLATYKQLEAARKIGFHVCAAGWMAK; peptide 4)", "values": [{"measurement": "amount of triglycerides in the liver tissue", "setting": "[1]; EtOH diet group, vs vehicle (FIG. 6D)", "value": "significantly reduced"}, {"measurement": "size and number of lipid droplet in the liver tissue", "setting": "[1]; H&E staining (FIG. 6E)", "value": "significantly reduced"}, {"measurement": "expression of CD44ICD in the nucleus", "setting": "CD44 [2]; 12 hours", "value": "decreased"}, {"measurement": "expression of α-SMA", "setting": "CD44 [2]; 12 hours", "value": "decreased"}, {"measurement": "expression of CD44ICD in the nucleus", "setting": "CD44 [2]; 24 hours", "value": "no expression of CD44ICD in the nucleus was observed"}, {"measurement": "expression of α-SMA", "setting": "CD44 [2]; 24 hours", "value": "significantly decreased"}, {"measurement": "serum ALT level", "setting": "[3]; [5]", "value": "decreased"}, {"measurement": "serum AST level", "setting": "[3]; [5]", "value": "decreased"}, {"measurement": "size and weight of the liver tissue", "setting": "[3]; 3.3 μg/kg intraperitoneally every other day for three weeks, between groups (FIGS. 6A, 6B)", "value": "did not show statistically significant differences"}, {"measurement": "cell survival and proliferation", "setting": "human pHSCs", "value": "no changes in cell survival and proliferation were observed"}, {"measurement": "nuclear expression and accumulation of CD44ICD", "setting": "CD44 [4]", "value": "significantly reduced"}]}]}
